# Laboratory results: patent publication US6979686B1, “Substituted pyrazoles as p38 kinase inhibitors” (Pharmacia Corporation, priority 2001, dated 2005)
# Counter-ions that a name gives are not always drawn.
# Target: T1, human p38 kinase alpha (Homo sapiens, UniProt Q16539)
# T1 construct: GST (N, cleaved yes); made in house; host or cells: E. coli DH10B
# Assay: p38 kinase in vitro assay, phosphorylation of biotinylated PHAS-I with 32P-ATP
# Type: biochemical
# Details: @ 1.0 uM
# T1 sequence (Q16539 whole entry): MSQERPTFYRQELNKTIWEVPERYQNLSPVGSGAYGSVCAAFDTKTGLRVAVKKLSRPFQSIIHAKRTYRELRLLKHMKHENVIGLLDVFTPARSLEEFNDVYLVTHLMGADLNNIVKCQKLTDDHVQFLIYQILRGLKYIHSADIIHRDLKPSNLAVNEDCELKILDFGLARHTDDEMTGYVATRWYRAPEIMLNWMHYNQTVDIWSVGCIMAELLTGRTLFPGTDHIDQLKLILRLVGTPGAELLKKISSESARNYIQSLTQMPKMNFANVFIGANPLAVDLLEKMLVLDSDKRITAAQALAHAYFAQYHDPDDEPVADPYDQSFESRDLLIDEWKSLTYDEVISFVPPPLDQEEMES
SMILES,P38 alpha kinase % inhib @ conc. (uM) [% @],P38 alpha kinase % inhib @ conc. [% @]
O=S(=O)(NCCc1[nH]nc(-c2ccc(F)cc2)c1-c1ccncc1)c1ccccc1 [Example B-1014],88.0,–
O=C(NCCc1[nH]nc(-c2ccc(F)cc2)c1-c1ccncc1)c1ccccc1I [Example B-0982],65.0,–
O=C(NCCCc1[nH]nc(-c2ccc(F)cc2)c1-c1ccncc1)C1CCCC1 [Example B-1181],79.0,–
CC(C)COC(=O)NCCc1[nH]nc(-c2ccc(F)cc2)c1-c1ccncc1 [Example B-1010],75.0,–
O=S(=O)(NCCCc1[nH]nc(-c2ccc(F)cc2)c1-c1ccncc1)c1ccccc1 [Example B-1191],74.0,–
CC(=O)OC(C)C(=O)NCCc1[nH]nc(-c2ccc(F)cc2)c1-c1ccncc1 (stereo not shown) [Example B-0993],57.0,–
CCCNC(=O)NCCCc1[nH]nc(-c2ccc(F)cc2)c1-c1ccncc1 [Example B-1218],–,88.0
CC(C)(C)C(=O)NCCCc1[nH]nc(-c2ccc(F)cc2)c1-c1ccncc1 [Example B-1229],–,87.0
CCOC(=O)c1ccc(NC(=O)NCCc2[nH]nc(-c3ccc(F)cc3)c2-c2ccncc2)cc1 [Example B-0949],90.0,–
O=C(NCCCc1[nH]nc(-c2ccc(F)cc2)c1-c1ccncc1)c1ccc(I)cc1 [Example B-1168],66.0,–

# Same assay, conditions: @ 1.0 uM; read-out: P38 alpha kinase % inhib @ conc.
row,SMILES,inhibition at 1 µM [%]
1,O=C(NCc1[nH]nc(-c2ccc(F)cc2)c1-c1ccncc1)c1ccc(I)cc1 [Example B-0017],56
2,O=C(NCc1[nH]nc(-c2ccc(F)cc2)c1-c1ccncc1)C(=O)c1c[nH]c2ccccc12 [Example B-0018],60
3,CCCCC(=O)NCc1[nH]nc(-c2ccc(F)cc2)c1-c1ccncc1 [Example B-0014],79

# Same assay, conditions: @ 10.0 uM
SMILES,"P38 alpha kinase IC50, uM or % inhib @ conc. (uM): % inhib [% @]",P38 alpha kinase % inhib @ conc. [% @]
Cc1c(-c2ccncc2)c(-c2ccc(F)cc2)nn1CC(=O)N(CCc1ccccc1)CCc1ccccn1 [Example B-2402],43.0,–
Cc1c(-c2ccncc2)c(-c2ccc(F)cc2)nn1CC(=O)NC1CCN(Cc2ccccc2)C1 (stereo not shown) [Example B-2338],–,73.0
Cc1c(-c2ccncc2)c(-c2ccc(F)cc2)nn1CC(=O)Nc1ccccc1C(=O)NC1CCCCC1 [Example B-2451],87.0,–
Cc1c(-c2ccncc2)c(-c2ccc(F)cc2)nn1CC(=O)NC1CCCCCC1 [Example B-2335],–,82.0
CCN1CCN(C(=O)Cn2nc(-c3ccc(F)cc3)c(-c3ccncc3)c2C)CC1 [Example B-2368],–,65.0
CCOC(=O)CN(Cc1ccccn1)C(=O)Cn1nc(-c2ccc(F)cc2)c(-c2ccncc2)c1C [Example B-2390],34.0,–
CCc1cccc(CC)c1NC(=O)Cn1nc(-c2ccc(F)cc2)c(-c2ccncc2)c1C [Example B-2420],70.0,–
Cc1ccc(C)c(C(=O)c2ccccc2NC(=O)Cn2nc(-c3ccc(F)cc3)c(-c3ccncc3)c2C)c1 [Example B-2443],84.0,–

# Same assay, conditions: Table 8; 1% DMSO; read-out: p38α Kinase Assay IC50
row,SMILES,IC50 [nM]
1,"Clc1ccc(-c2[nH]nc(NC3CCNCC3)c2-c2ccncc2)cc1 [Example A-332, N-[5-(4-chlorophenyl)-4-(4-pyridinyl)-3H-pyrazol-3-yl]-4-piperidineamine, trihydrochloride, monohydrate]",40

# Same assay, conditions: in vitro P38-alpha kinase inhibition; read-out: P38 alpha kinase IC50
row,SMILES,IC50 [nM]
1,CC(NC(=O)C1CCCN1)c1[nH]nc(-c2ccc(F)cc2)c1-c1ccncc1 (stereo not shown) [Example B-0605],180
2,CC(NS(=O)(=O)c1ccccc1C(F)(F)F)c1[nH]nc(-c2ccc(F)cc2)c1-c1ccncc1 (stereo not shown) [Example B-0635],150
3,CC(C)c1ccc(S(=O)(=O)NC(C)c2[nH]nc(-c3ccc(F)cc3)c2-c2ccncc2)cc1 (stereo not shown) [Example B-0623],120
4,COc1ccc(Cl)cc1S(=O)(=O)NCCc1[nH]nc(-c2ccc(F)cc2)c1-c1ccncc1 [Example B-1106],< 100
5,CN(C)S(=O)(=O)NCCc1[nH]nc(-c2ccc(F)cc2)c1-c1ccncc1 [Example B-1115],24
6,O=[N+]([O-])c1ccccc1CS(=O)(=O)NCCc1[nH]nc(-c2ccc(F)cc2)c1-c1ccncc1 [Example B-1070],< 100
7,O=C(NCCc1[nH]nc(-c2ccc(F)cc2)c1-c1ccncc1)c1c(F)cccc1C(F)(F)F [Example B-1137],38
8,CC(NC(=O)c1ccccc1Br)c1[nH]nc(-c2ccc(F)cc2)c1-c1ccncc1 (stereo not shown) [Example B-0703],120
9,CC(=O)OCC(=O)NC(Cc1ccccc1)c1[nH]nc(-c2ccc(F)cc2)c1-c1ccncc1 (stereo not shown) [Example B-0797],1040
10,Cc1ccc(F)cc1S(=O)(=O)NC(C)c1[nH]nc(-c2ccc(F)cc2)c1-c1ccncc1 (stereo not shown) [Example B-0628],23
11,O=C(NCCc1[nH]nc(-c2ccc(F)cc2)c1-c1ccncc1)c1ccccc1Br [Example B-1154],85
12,N#Cc1ccc(S(=O)(=O)NCCc2[nH]nc(-c3ccc(F)cc3)c2-c2ccncc2)cc1 [Example B-1107],57
13,C[C@@H](NS(=O)(=O)c1cc(Cl)cc(Cl)c1)c1[nH]nc(-c2ccc(F)cc2)c1-c1ccncc1 [Example B-0464],< 100
14,CC(NC(=O)N(C)c1ccccc1)c1[nH]nc(-c2ccc(F)cc2)c1-c1ccncc1 (stereo not shown) [Example B-0586],810
15,COCC(=O)NC(Cc1ccccc1)c1[nH]nc(-c2ccc(F)cc2)c1-c1ccncc1 (stereo not shown) [Example B-0842],740

# Same assay, conditions: in vitro P38-alpha kinase; read-out: P38 alpha kinase IC50
row,SMILES,IC50 [nM]
1,O=C(NCCCc1[nH]nc(-c2ccc(F)cc2)c1-c1ccncc1)c1ccccc1Br [Example B-1355],70
2,O=C(NCCCc1[nH]nc(-c2ccc(F)cc2)c1-c1ccncc1)c1cc(F)cc(C(F)(F)F)c1 [Example B-1342],250
3,COc1ccc(Cl)cc1S(=O)(=O)N1CCC(c2[nH]nc(-c3ccc(F)cc3)c2-c2ccncc2)CC1 [Example B-1445],430
4,O=C(c1cc(F)ccc1F)N1CCC(c2[nH]nc(-c3ccc(F)cc3)c2-c2ccncc2)CC1 [Example B-1402],120
5,CC(=O)Nc1ccc(S(=O)(=O)NCCCc2[nH]nc(-c3ccc(F)cc3)c2-c2ccncc2)cc1 [Example B-1236],100
6,O=C(NCCCc1[nH]nc(-c2ccc(F)cc2)c1-c1ccncc1)c1ccc(Cl)cc1Cl [Example B-1345],270
7,Cc1ccc(S(=O)(=O)NCCNC(=O)Cn2nc(-c3ccc(F)cc3)c(-c3ccncc3)c2C)cc1 [Example B-2299],1970
8,O=C(c1cccc(Cl)c1)N1CCC(c2[nH]nc(-c3ccc(F)cc3)c2-c2ccncc2)CC1 [Example B-1394],320
9,O=S(=O)(NCCCc1[nH]nc(-c2ccc(F)cc2)c1-c1ccncc1)c1c(Cl)cccc1Cl [Example B-1258],70
10,Cc1ccccc1C(=O)N1CCC(c2[nH]nc(-c3ccc(F)cc3)c2-c2ccncc2)CC1 [Example B-1400],24

# Same assay, conditions: read-out: P38 alpha kinase IC50
row,SMILES,IC50 [nM]
1,"COCC(=O)N[C@H]1CC[C@@H](C2=NN=C(c3ccc(Cl)cc3)C2c2ccncc2)CC1 (stereo partly drawn) [Example C-96, 5-cis-[4-N-(METHOXYACETYL)AMINOCYCLOHEXYL]-4-(4-PYRIDYL)-3-(4-CHLOROPHENYL)PYRAZOLE]",77
2,"N[C@H]1CC[C@@H](c2[nH]nc(-c3ccc(C(F)(F)F)cc3)c2-c2ccncc2)CC1 [Example C-101, 5-cis-(4-AMINOCYCLOHEXYL)-4-(4-PYRIDYL)-3-[4-(TRIFLUOROMETHYL)PHENYL]PYRAZOLE]",83
